This is an account of results in PMC3421993 (Journal of Experimental Botany, 2012).

In the assay the target is T1, HRP (horseradish peroxidase) (Armoracia rusticana, UniProt P00433).
T1 sequence (P00433 31-338): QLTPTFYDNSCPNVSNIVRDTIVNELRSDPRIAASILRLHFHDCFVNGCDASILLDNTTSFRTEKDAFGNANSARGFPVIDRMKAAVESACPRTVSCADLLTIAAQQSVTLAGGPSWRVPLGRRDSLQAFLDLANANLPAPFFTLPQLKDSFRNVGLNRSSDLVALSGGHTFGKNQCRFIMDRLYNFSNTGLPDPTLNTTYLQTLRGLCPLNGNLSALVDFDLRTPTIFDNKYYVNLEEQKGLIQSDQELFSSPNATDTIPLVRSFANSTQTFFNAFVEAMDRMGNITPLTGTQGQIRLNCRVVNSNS
Kind of assay: spectrophotometric peroxidase assay, […] nm. Type of assay: biochemical. Conditions: read-out: K m (mM) / Pyrogallol; 3.3 mM H2O2; 100 mM Na-phosphate pH 6.5.

With `Oc1cccc(O)c1O` [pyrogallol], the Km is 1.1 ± 0.1 mM.
